The values below are quoted from earlier work in patent US6943193B1, “Method for treating sexual dysfunction” (priority 2003, dated 2005).

The test system of this data set is erectile dysfunction.

For the compound `CCCc1nn(C)c2c(=O)[nH]c(-c3cc(S(=O)(=O)N4CCN(C)CC4)ccc3OCC)nc12` [sildenafil], for the setting “clinical practice”, the efficacy is given as roughly 50%. Also, the success rates (initial reports) is no more than 85%.
